Source: patent US7074804B2, “CCI-779 Isomer C” (Wyeth, priority 2003, dated 2006)
Values after ≈ are worked out from the molar mass of the structure shown. Like-named read-outs stand apart in the source and are kept apart here.

Columns and labels:
Aspergillus fumigatus = experiment: Antifungal activity, microtiter broth dilution MIC; assay type: cell-based; conditions: Aspergillus fumigatus strain ATCC 26933, RPMI 1640, 35° C., 24–48 h
Experimental: (§1) Antifungal activity for CCI-779 Isomer C was established by evaluating it against several strains of fungi. Briefly the following procedure was used to evaluate such activity. A 96 well microtiter plate was filled (50 μL/well) with RPMI 1640. The compounds to be evaluated were placed in appropriate wells and serial diluted in successive wells to provide several dilutions. The concentration ranged from […]. An adjusted inoculum of fungi (50 μL) was added to each well and plates were incubated at 35° C. for 24–48 h.

Aspergillus niger = experiment: Antifungal activity, microtiter broth dilution MIC; assay type: cell-based; conditions: RPMI 1640, 35° C., 24–48 h
Experimental: as §1

Candida albicans = experiment: Antifungal activity, microtiter broth dilution MIC; assay type: cell-based; conditions: RPMI 1640, 35° C., 24–48 h
Experimental: as §1

Candida krussii = experiment: Antifungal activity, microtiter broth dilution MIC; assay type: cell-based; conditions: Candida krussii strain 94-2, RPMI 1640, 35° C., 24–48 h
Experimental: as §1

Candida lusitaniae = experiment: Antifungal activity, microtiter broth dilution MIC; assay type: cell-based; conditions: Candida lusitaniae strain 94-3, RPMI 1640, 35° C., 24–48 h
Experimental: as §1

Candida parapsilosis = experiment: Antifungal activity, microtiter broth dilution MIC; assay type: cell-based; conditions: RPMI 1640, 35° C., 24–48 h
Experimental: as §1

Candida pseudotropicalis = experiment: Antifungal activity, microtiter broth dilution MIC; assay type: cell-based; conditions: Candida pseudotropicalis strain ATCC 28838, RPMI 1640, 35° C., 24–48 h
Experimental: as §1

Candida rugosa = experiment: Antifungal activity, microtiter broth dilution MIC; assay type: cell-based; conditions: Candida rugosa strain 94-10, RPMI 1640, 35° C., 24–48 h
Experimental: as §1

Candida tropicalis = experiment: Antifungal activity, microtiter broth dilution MIC; assay type: cell-based; conditions: RPMI 1640, 35° C., 24–48 h
Experimental: as §1

[1] = Stability of CCI-779 Isomer C (solid form, aqueous suspension, formulation); assay type: physicochemical
[2] = test system: histologically diverse tumor cells; conditions: cited from earlier work
human tumor xenografts = conditions: nude mice, diverse histological types; cited from earlier work
[3] = Candida parapsilosis strain 94-9
[4] = Candida tropicalis strain 94-13
[5] = Candida albicans strain ATCC 90028
[6] = Candida parapsilosis strain 94-8
[7] = Candida parapsilosis strain ATCC 90018
[8] = Candida tropicalis strain 94-14

| Compound | MIC (Aspergillus niger; Aspergillus niger strain S399) | MIC (Candida albicans; Candida albicans strain 1117) | MIC (Candida parapsilosis; [3]) | MIC (Candida tropicalis; [4]) | MIC (Aspergillus fumigatus) | MIC (Aspergillus niger; Aspergillus niger strain S430) | MIC (Candida albicans; Candida albicans strain 1063) | MIC (Candida albicans; [5]) | MIC (Candida krussii) | MIC (Candida lusitaniae) | MIC (Candida parapsilosis; [6]) | MIC (Candida parapsilosis; [7]) | MIC (Candida pseudotropicalis) | MIC (Candida rugosa) | MIC (Candida tropicalis; [8]) | further results |
| --- | --- | --- | --- | --- | --- | --- | --- | --- | --- | --- | --- | --- | --- | --- | --- | --- |
| CO[C@H]1C[C@@H]2CC[C@@H](C)C(=O)C(O)(O2)C(=O)N2CCCC[C@H]2C(=O)O[C@H]([C@H](C)C[C@@H]2CC[C@@H](OC(=O)C(C)(CO)CO)[C@H](OC)C2)CC(=O)[C@H](C)/C=C(\C)[C@@H](O)[C@@H](OC)C(=O)[C@H](C)C[C@H](C)/C=C/C=C/C=C/1C (single isomer, unassigned) [CCI-779 Isomer C] | 32 µg/mL (≈ 31.1 µM) | 4 µg/mL (≈ 3.88 µM) | 4 µg/mL (≈ 3.88 µM) | 4 µg/mL (≈ 3.88 µM) | – | – | – | – | – | – | – | – | – | – | – | MIC (Aspergillus fumigatus; ATCC26933, read-out: MIC): > 32 µg/mL; MIC (Aspergillus niger; Aspergillus niger strain S430, read-out: MIC): 32 µg/mL (≈ 31.1 µM); MIC (Candida albicans; ATCC90028, Candida albicans strain ATCC 90028, read-out: MIC): 4 µg/mL (≈ 3.88 µM); MIC (Candida albicans; Candida albicans strain 1063, read-out: MIC): 4 µg/mL (≈ 3.88 µM); MIC (Candida krussii; read-out: MIC): 4 µg/mL (≈ 3.88 µM); MIC (Candida lusitaniae; Clavispora lusitaniae, read-out: MIC): 8 µg/mL (≈ 7.76 µM); MIC (Candida parapsilosis; Lodderomyces parapsilosis, ATCC90018, Candida parapsilosis strain ATCC 90018, read-out: MIC): 4 µg/mL (≈ 3.88 µM); MIC (Candida parapsilosis; Lodderomyces parapsilosis, Candida parapsilosis strain 94-8, read-out: MIC): 4 µg/mL (≈ 3.88 µM); MIC (Candida pseudotropicalis; Kluyveromyces marxianus, ATCC28838, read-out: MIC): 4 µg/mL (≈ 3.88 µM); MIC (Candida rugosa; Diutina rugosa, read-out: MIC): 16 µg/mL (≈ 15.5 µM); MIC (Candida tropicalis; Candida tropicalis strain 94-14, read-out: MIC): 4 µg/mL (≈ 3.88 µM); stability with citric acid ([1]; citric acid at a concentration of less than 0.01% w/v in formulation): enhanced the stability; stability under storage conditions ([1]; formulated in solid form): stable under storage conditions for extended periods of time; stability ([1]; in an aqueous suspension): stable |
| CO[C@H]1C[C@@H]2CC[C@@H](C)[C@@](O)(O2)C(=O)C(=O)N2CCCC[C@H]2C(=O)O[C@H]([C@H](C)C[C@@H]2CC[C@@H](OC(=O)C(C)(CO)CO)[C@H](OC)C2)CC(=O)[C@H](C)/C=C(\C)[C@@H](O)[C@@H](OC)C(=O)[C@H](C)C[C@H](C)/C=C/C=C/C=C/1C (single isomer, unassigned) [CCI-779, Rapamycin 42-ester with 3-hydroxy-2-(hydroxymethyl)-2-methylpropionic acid] | – | – | – | – | – | – | – | – | – | – | – | – | – | – | – | growth of tumor cells in vitro ([2]; CNS cancer, leukemia (T-cell), breast, prostate, melanoma lines most sensitive): inhibit the growth; cell cycle effect ([2]; in vitro): arrested cells in the G1 phase of the cell cycle; activity against human tumor xenografts (human tumor xenografts): has activity |
| C[C@@H]1[C@H](O)[C@@H](C)/C=C/C=C/C=C/C=C/C=C/C=C/C=C/[C@H](O[C@@H]2O[C@H](C)[C@@H](O)[C@H](N)[C@@H]2O)C[C@@H]2O[C@](O)(C[C@@H](O)C[C@@H](O)[C@H](O)CC[C@@H](O)C[C@@H](O)CC(=O)O[C@H]1C)C[C@H](O)[C@H]2C(=O)O [Amphotericin B] | 0.50 µg/mL (≈ 0.541 µM) | 0.12 µg/mL (≈ 0.13 µM) | 0.12 µg/mL (≈ 0.13 µM) | ≦0.06 μg/mL | 0.25 µg/mL (≈ 0.271 µM) | 0.25 µg/mL (≈ 0.271 µM) | ≦0.06 μg/mL | 0.12 µg/mL (≈ 0.13 µM) | 0.12 µg/mL (≈ 0.13 µM) | ≦0.06 μg/mL | ≦0.06 μg/mL | ≦0.06 μg/mL | ≦0.06 μg/mL | 0.25 µg/mL (≈ 0.271 µM) | ≦0.06 μg/mL | – |
| C[C@@H]1[C@H](O)[C@@H](C)/C=C/C=C/CC/C=C/C=C/C=C/C=C/C(O[C@H]2O[C@H](C)[C@@H](O)[C@H](N)[C@@H]2O)CC2O[C@](O)(CC(O)C(O)CCC(O)CC(O)CC(O)CC(=O)O[C@H]1C)CC(O)C2C(=O)O (stereo partly drawn) [Nystatin] | 2 µg/mL (≈ 2.16 µM) | 1 µg/mL (≈ 1.08 µM) | 1 µg/mL (≈ 1.08 µM) | 1 µg/mL (≈ 1.08 µM) | 2 µg/mL (≈ 2.16 µM) | 1 µg/mL (≈ 1.08 µM) | 1 µg/mL (≈ 1.08 µM) | 1 µg/mL (≈ 1.08 µM) | 1 µg/mL (≈ 1.08 µM) | 1 µg/mL (≈ 1.08 µM) | 2 µg/mL (≈ 2.16 µM) | 2 µg/mL (≈ 2.16 µM) | 1 µg/mL (≈ 1.08 µM) | 1 µg/mL (≈ 1.08 µM) | 1 µg/mL (≈ 1.08 µM) | – |
